This passage reports IC50 results from ChEMBL document CHEMBL2380234, “Natural sesquiterpene lactones as inhibitors of Myb-dependent gene expression: structure-activity relationships” (Eur J Med Chem, 2013).

As a reminder, the IC50 is the concentration at which inhibition is half-maximal.

This assay in a line: Cytotoxicity against chicken HD11 cells assessed as cell viability after 24 hrs by MTS assay. In kind it is ADME, cell-based. As to conditions: Gallus gallus, HD11, 24 h. (In general: Formazan colour is commonly taken as a measure of viable cells.)
Consider `C=C1C(=O)O[C@H]2C[C@H](C)[C@@H]3CC[C@@]4(C)O[C@@]34C[C@H]12`, for which the IC50 was above 30 µM.

`C=C1C(=O)O[C@@H]2/C=C(/CO)C[C@H](O)/C=C(/C(=O)OC)[C@@H](OC(C)=O)[C@@H](OC(=O)C(C)C)[C@@H]12`: the IC50 turned out to be 24.8 µM.

Turning to `C=C1C(=O)O[C@@H]2C[C@@H](C)[C@@H]3[C@@H](O)C[C@@H](O)[C@@]3(C)C[C@H]12`, the IC50 was above 30 µM.

For the compound `C=C(CO)C(=O)O[C@H]1C/C(C)=C\CC/C(CO)=C\[C@H]2OC(=O)C(=C)[C@H]12` [ONOPORDOPICRIN], the IC50 was above 30 µM.

For `C=C1C(=O)O[C@H]2[C@H]1[C@H](OC(C)=O)C/C(C)=C/CC[C@@]1(C)O[C@@H]21`, the concentration for half-maximal inhibition (IC50) is above 30 µM.

In the case of `C=C1C[C@H]2OC(=O)C(=C)[C@@H]2[C@H](OC(=O)C(C)C)C[C@@]2(C)OC1=CC2=O`, the IC50 amounted to 25.2 µM.

With `C=C1C(=O)O[C@@H]2C[C@]3(C)[C@@H](CCC(C)=O)[C@]3(C)C[C@H]12` [CARABRONE], the IC50 is above 30 µM.

For `C=C1C(=O)O[C@@H]2C[C@@H](C)C(=O)C/C=C(\C)CC[C@@H]12` [ARGOLIDE], the concentration for half-maximal inhibition (IC50) is above 30 µM.

Take `CC(C)CC(=O)O[C@H]1[C@@H]2[C@H](C)C(=O)O[C@@H]2C[C@@H](C)[C@@H]2C=CC(=O)[C@]21C`: the half-maximal inhibitory concentration (IC50) was above 30 µM.

As for `C=C1C(=O)O[C@@H]2/C=C(/C)C(=O)/C=C/[C@](C)(O)C[C@@H](OC(=O)C(C)C)[C@@H]12` [TAGITININ C], the IC50 came out at 30.9 µM.

For the compound `C=C(C)C(=O)O[C@H]1C[C@@]2(C)OC(=CC2=O)/C(CO)=C\[C@H]2OC(=O)C(=C)[C@H]12` [GOIAZENSOLIDE], the IC50 was found to be 10.1 µM.

Take `C=C1C(=O)O[C@@H]2/C=C(/CO)C3=CC(=O)[C@@](C)(C[C@@H](OC(=O)/C(C)=C/C)[C@@H]12)O3` [BUDLEIN A]: the 50% inhibitory concentration (IC50) was found to be 9 µM.

On to `C=C1C(=O)O[C@@H]2C[C@@H](C)[C@@H]3[C@@H](OC(C)=O)C[C@@H](O)[C@@]3(C)[C@@H](O)[C@H]12` [CHAMISSONOLIDE], for which the IC50 is above 30 µM.

With `C=C1CC[C@H]2C(=C)CC[C@H]3C(=C)C(=O)O[C@@H]3[C@@H]12` [DEHYDROCOSTUSLACTONE], the half-inhibitory concentration (IC50) is above 30 µM.

For the compound `C=C1C(=O)O[C@@H]2/C=C(\CO)CC/C=C(\C)C[C@H](OC(=O)C(=C)[C@H](O)CO)[C@@H]12` [CNICIN], the half-inhibitory concentration (IC50) was above 30 µM.

As to `C=C1C(=O)O[C@@H]2/C=C(\C)CC/C=C(/C(=O)OC)[C@H](OC(C)=O)[C@@H](OC(=O)[C@]3(C)O[C@@H]3C)[C@@H]12` [UVEDALIN], the IC50 is 11.4 µM.

For `C=C1C(=O)O[C@H]2[C@H]1[C@H](OC(=O)[C@]1(C)O[C@@H]1C)[C@@H](OC(C)=O)/C(C(=O)OC)=C\C=C/[C@@]1(C)O[C@H]21`, the half-maximal inhibitory concentration (IC50) turned out to be 28 µM.

With `C=C1C(=O)O[C@@H]2/C=C(\C)CC/C=C(\C)CC[C@@H]12` [COSTUNOLIDE], the IC50 was above 30 µM.

With `C=C1C(=O)O[C@@H]2[C@H]1CC[C@H](C)[C@]1(CCC(=O)O1)[C@@]2(C)O` [PSILOSTACHYIN A], the concentration for half-maximal inhibition (IC50) was above 30 µM.

As for `C=C1C[C@H](O)C[C@]2(C)C[C@H]3OC(=O)[C@@H](C)[C@H]3C[C@@H]12`, the half-maximal inhibitory concentration (IC50) was above 30 µM.

For `C=C1C(=O)O[C@@H]2/C=C(\C)CC[C@H]3O[C@]3(CO)C[C@@H](OC(=O)C3(C)OC3C)[C@@H]12` (stereo partly drawn), the IC50 was above 30 µM.

With `C=C1C(=O)O[C@@H]2C[C@H](C)[C@@]3(O)C=C(C(C)=O)[C@@]4(O[C@@H]3C[C@H]12)C(=O)O[C@H]1C[C@@H](C)C(/C=C/C(C)=O)=CC[C@H]14`, the IC50 was above 30 µM.

For the compound `C=C1C(=O)O[C@@H]2[C@H]3C(C)=CC[C@@]34O[C@@]4(C)CC[C@@H]12` [ARGLABIN], the half-maximal inhibitory concentration (IC50) was above 30 µM.

As to `C=C1C(=O)O[C@@H]2C[C@@H](C)[C@@H]3[C@@H](OC(C)=O)C[C@@H](O)[C@@]3(OC(C)=O)C[C@H]12`, the IC50 is above 30 µM.

In the case of `C=C1C(=O)O[C@@H]2C[C@@H](C)[C@@H]3CCC(=O)[C@@]3(C)C[C@H]12`, the IC50 was above 30 µM.

On to `C=C1C(=O)O[C@@H]2C[C@H](C)[C@@]3(O)C=C(C(C)=O)[C@@]4(O[C@@H]3C[C@H]12)C(=O)O[C@H]1C[C@@H](C)[C@]2(/C=C/C(C)=O)O[C@@H]2C[C@H]14`, for which the half-maximal inhibitory concentration (IC50) is above 30 µM.

`C=C1C(=O)O[C@@H]2C[C@@H](C)[C@@H]3[C@@H](OC(C)=O)C[C@@H](O)[C@@]3(C)C[C@H]12`: the IC50 is above 30 µM.

For the compound `C=C1C(=O)O[C@@H]2C[C@@H](C)[C@@H]3[C@@H](O)C[C@@H](OC(=O)/C(C)=C/C)[C@@]3(C)[C@@H](O)[C@H]12`, the IC50 was above 30 µM.

Take `C=C1C(=O)O[C@@H]2C[C@@H](C)[C@@H]3[C@@H](OC(C)=O)C[C@@H](OC(C)=O)[C@@]3(C)[C@@H](OC(C)=O)[C@H]12`: the IC50 is above 30 µM.

For the compound `C=C1C(=O)O[C@@H]2C[C@@H](C)[C@@H]3C=CC(=O)[C@@]3(C)[C@@H](OC(=O)C(C)C)[C@H]12` [HELENALINISOBUTYRATE], the IC50 is above 30 µM.

Consider `C=C1C(=O)O[C@@H]2C[C@@H](C)[C@@H]3C=CC(=O)[C@@]3(C)[C@@H](O)[C@H]12` [HELENALIN], for which the half-inhibitory concentration (IC50) stood at 21.1 µM.

Regarding `C/C1=C\CC[C@@]2(C)O[C@@H]2[C@H]2OC(=O)[C@@H](C)[C@@H]2CC1` [11BETA,13-DIHYDRO-PARTHENOLIDE], the IC50 is above 30 µM.

Consider `C=C1C(=O)O[C@@H]2C[C@H](C)[C@]3(O)CCC(=O)[C@@]3(C)C[C@H]12` [PERUVIN], for which the IC50 was above 30 µM.

As for `C=C1C(=O)O[C@@H]2C[C@@]3(C)CCC[C@H](C)C3=C[C@H]12` [HELENINE], the 50% inhibitory concentration (IC50) was above 30 µM.

As to `C=C1C[C@H]2OC(=O)C(=C)[C@@H]2[C@H](OC(=O)/C(C)=C/C)C[C@@]2(C)OC1=CC2=O`, the half-inhibitory concentration (IC50) was 12.1 µM.

In the case of `C=C1C(=O)O[C@@H]2/C=C(\C)CC/C=C(/C(=O)OC)[C@H](OC(C)=O)[C@@H](OC(=O)C(C)(O)C(C)O)[C@@H]12` (stereo partly drawn), the IC50 is above 30 µM.

On to `C=C1C(=O)O[C@@H]2C[C@@H](C)[C@@H]3C=CC(=O)[C@@]3(C)[C@@H](OC(C)=O)[C@H]12` [ANGUSTIBALIN], for which the IC50 stood at 7.34 µM.

Regarding `CC(=O)O[C@H]1[C@@H]2[C@H](C)C(=O)O[C@@H]2C[C@@H](C)[C@@H]2C=CC(=O)[C@]21C`, the IC50 amounted to 21 µM.

On to `C=C1C(=O)O[C@H]2[C@H]1[C@H](OC(=O)[C@@]1(C)O[C@H]1C)[C@@H](OC(C)=O)/C(C(=O)OC)=C\CC[C@@]1(C)O[C@H]21` [ENHYDRIN], for which the half-maximal inhibitory concentration (IC50) was determined as 7.49 µM.

`C=C1C(=O)O[C@@H]2[C@H]3C(C)=CC[C@H](O)[C@]3(C)CC[C@@H]12` [DOUGLANIN]: the IC50 was above 30 µM.

Take `C=C1C(=O)O[C@@H]2C[C@@]3(C)CC(=O)C[C@H](C)C3=C[C@H]12` [2-OXOALANTOLACTONE]: the 50% inhibitory concentration (IC50) is above 30 µM.

Take `C=C1C(=O)O[C@@H]2C[C@@]3(C)C[C@@H](O)CC(=C)[C@@H]3C[C@H]12` [IVALIN]: the IC50 is above 30 µM.

With `C=C1C(=O)O[C@@H]2C[C@H](C)C(/C=C/C(C)=O)=CC[C@H]12`, the IC50 was above 30 µM.

In the case of `C=C1C(=O)O[C@@H]2[C@H]3O[C@]3(C)CC/C=C(\C)[C@@H](OC(=O)CC(C)(C)O)C[C@@H]12`, the half-inhibitory concentration (IC50) was above 30 µM.

Take `C=C1C(=O)O[C@@H]2C[C@@H](C)[C@@H]3[C@@H](O)CC(=O)[C@@]3(C)[C@@H](OC(=O)/C(C)=C/C)[C@H]12` [ARNIFOLIN]: the half-inhibitory concentration (IC50) was above 30 µM.

As to `C=C1C(=O)O[C@@H]2C[C@H](C)[C@]3(/C=C/C(C)=O)O[C@@H]3C[C@H]12`, the IC50 was above 30 µM.

On to `C=C1C(=O)O[C@@H]2/C=C(/C)[C@@H](O)C[C@H]3O[C@]3(COC(C)=O)C[C@@H](OC(=O)/C(C)=C\C)[C@@H]12` [ROTUNDIN], for which the 50% inhibitory concentration (IC50) was above 30 µM.

As for `C=C1C(=O)O[C@H]2C[C@@H](C)[C@@H]3C=CC(=O)[C@@]3(C)[C@H](O)[C@H]12` [MEXICANIN I], the IC50 stood at 21.1 µM.

As to `C=C1C(=O)O[C@@H]2[C@H]3O[C@]3(C)CC/C=C(\C)[C@@H](OC(=O)CC3(C)OC3C)C[C@@H]12` (stereo partly drawn), the half-maximal inhibitory concentration (IC50) was found to be 22.2 µM.

`C=C1C(=O)O[C@@H]2/C=C(\C)CC[C@H]3O[C@]3(COC(C)=O)C[C@@H](OC(=O)C3(C)OC3C)[C@@H]12` (stereo partly drawn): the IC50 was 25.5 µM.

Regarding `C=C1C(=O)O[C@@H]2/C=C(/C)[C@@H](O)C/C=C(\C)C[C@H](OC(=O)/C(C)=C\C)[C@@H]12` [NOBILIN], the concentration for half-maximal inhibition (IC50) was above 30 µM.

Take `C=C(C)C(=O)O[C@@H]1C[C@@]2(C)OC(=CC2=O)C(=C)C[C@H]2OC(=O)C(=C)[C@H]12`: the half-inhibitory concentration (IC50) came out at 10.4 µM.

With `C=C1C(=O)O[C@@H]2C[C@@H](C)[C@@H]3[C@@H](OC(C)=O)C[C@@H](OC(C)=O)[C@@]3(C)C[C@H]12`, the concentration for half-maximal inhibition (IC50) is above 30 µM.

On to `C=C1C(=O)O[C@@H]2[C@H]3O[C@]3(C)CC/C=C(\C)[C@@H](OC(=O)C(C)C(C)O)C[C@@H]12` (stereo partly drawn), for which the IC50 is above 30 µM.

For `C=C1C(=O)O[C@@H]2/C=C(/C)[C@@H](O)C[C@H]3O[C@]3(C)C[C@@H](OC(=O)/C(C)=C\C)[C@@H]12` [EPOXYNOBILIN], the half-inhibitory concentration (IC50) is above 30 µM.

For `C=C1C(=O)O[C@@H]2/C=C(/C)[C@@H](OC(C)=O)C[C@H]3O[C@]3(O)C[C@@H](OC(=O)/C(C)=C\C)[C@@H]12`, the half-inhibitory concentration (IC50) was above 30 µM.

For the compound `C=C1C(=O)O[C@@H]2C3O[C@]3(C)CC/C=C(\C)CC[C@@H]12` (stereo partly drawn), the IC50 was above 30 µM.

`C=C1C(=O)O[C@@H]2C[C@@]3(C)CCCC(=C)[C@@H]3C[C@H]12` [ISOALANTOLACTONE]: the IC50 is above 30 µM.
